Measured values published in ChEMBL document CHEMBL1275511, “Molecular and biochemical characterization of SHV-56, a novel inhibitor-resistant beta-lactamase from Klebsiella pneumoniae” (Antimicrob Agents Chemother, 2008).
In brackets after ≈: the same amount, converted by molar mass.

Legend:
Escherichia coli [1] = assay: Activity of Escherichia coli Inhibitor-resistant beta-lactamase SHV-56; conditions: JM109
Klebsiella pneumoniae [2] = assay: Antimicrobial activity against Klebsiella pneumoniae Kp2792 expressing beta-lactamase SHV-56 by agar dilution method; type: functional
Escherichia coli [3] = assay: Antimicrobial activity against Escherichia coli JM109 harboring pE1 plasmid expressing beta-lactamase SHV-11 by agar dilution method; type: functional
Escherichia coli [4] = assay: Antimicrobial activity against Escherichia coli JM109 harboring pSC1 plasmid expressing beta-lactamase SHV-56 by agar dilution method; type: functional
Escherichia coli [5] = assay: Antimicrobial activity against Escherichia coli JM109 harboring pE1MD plasmid expressing beta-lactamase SHV-56 by agar dilution method; type: functional
Escherichia coli [6] = assay: Antimicrobial activity against Escherichia coli JM109 by agar dilution method; type: functional
Escherichia coli [7] = assay: Ratio of Kcat to Km for Escherichia coli Inhibitor-resistant beta-lactamase SHV-56; conditions: JM109
Klebsiella pneumoniae [8] = assay: Antimicrobial activity against Klebsiella pneumoniae Kp2792 expressing beta-lactamase SHV-56 by agar dilution method in presence of clavulanic acid; type: functional
Escherichia coli [9] = assay: Antimicrobial activity against Escherichia coli JM109 harboring pE1 plasmid expressing beta-lactamase SHV-11 by agar dilution method in presence of clavulanic acid; type: functional
Escherichia coli [10] = assay: Antimicrobial activity against Escherichia coli JM109 harboring pSC1 plasmid expressing beta-lactamase SHV-56 by agar dilution method in presence of clavulanic acid; type: functional
Escherichia coli [11] = assay: Antimicrobial activity against Escherichia coli JM109 harboring pE1MD plasmid expressing beta-lactamase SHV-56 by agar dilution method in presence of clavulanic acid; type: functional
Escherichia coli [12] = assay: Antimicrobial activity against Escherichia coli JM109 by agar dilution method in presence of clavulanic acid; type: functional
Escherichia coli [13] = assay: Antimicrobial activity against Escherichia coli JM109 harboring pE1 plasmid expressing beta-lactamase SHV-11 by agar dilution method in presence of Sulbactam; type: functional
Escherichia coli [14] = assay: Antimicrobial activity against Escherichia coli JM109 harboring pSC1 plasmid expressing beta-lactamase SHV-56 by agar dilution method in presence of Sulbactam; type: functional
Escherichia coli [15] = assay: Antimicrobial activity against Escherichia coli JM109 harboring pE1MD plasmid expressing beta-lactamase SHV-56 by agar dilution method in presence of Sulbactam; type: functional
Klebsiella pneumoniae [16] = assay: microbe, parasite or virus in culture; conditions: Kp2792
[17] = Inhibition of Escherichia coli Inhibitor-resistant beta-lactamase SHV-56; parameters: species or system JM109
Klebsiella pneumoniae [18] = assay: Antimicrobial activity against Klebsiella pneumoniae Kp2792 expressing beta-lactamase SHV-56 by agar dilution method in presence of Tazobactam; type: functional
Escherichia coli [19] = assay: Antimicrobial activity against Escherichia coli JM109 harboring pE1 plasmid expressing beta-lactamase SHV-11 by agar dilution method in presence of Tazobactam; type: functional
Escherichia coli [20] = assay: Antimicrobial activity against Escherichia coli JM109 harboring pSC1 plasmid expressing beta-lactamase SHV-56 by agar dilution method in presence of Tazobactam; type: functional
Escherichia coli [21] = assay: Antimicrobial activity against Escherichia coli JM109 harboring pE1MD plasmid expressing beta-lactamase SHV-56 by agar dilution method in presence of Tazobactam; type: functional
Escherichia coli [22] = assay: Antimicrobial activity against Escherichia coli JM109 by agar dilution method in presence of Tazobactam; type: functional
[23] = substrate: CC(=O)OCC1=C(C(=O)O)N2C(=O)[C@@H](NC(=O)Cc3cccs3)[C@H]2SC1; assay: (§1) Activity of Escherichia coli beta-lactamase SHV-11; conditions: JM109
[24] = substrate: CC(C)(O/N=C(\C(=O)N[C@@H]1C(=O)N2C(C(=O)[O-])=C(C[n+]3ccccc3)CS[C@H]12)c1csc(N)n1)C(=O)O; assay: as §1; conditions: JM109
[25] = substrate: CC1(C)S[C@@H]2[C@H](NC(=O)[C@H](C(=O)O)c3ccsc3)C(=O)N2[C@H]1C(=O)O; assay: as §1; conditions: JM109
[26] = substrate: CCN1CCN(C(=O)N[C@@H](C(=O)N[C@@H]2C(=O)N3[C@@H]2SC(C)(C)[C@@H]3C(=O)O)c2ccccc2)C(=O)C1=O; assay: as §1; conditions: JM109
[27] = substrate: CO/N=C(\C(=O)N[C@@H]1C(=O)N2C(C(=O)O)=C(COC(C)=O)CS[C@H]12)c1csc(N)n1; assay: as §1; conditions: JM109
[28] = substrate: CO/N=C(\C(=O)N[C@@H]1C(=O)N2C(C(=O)O)=C(COC(N)=O)CS[C@H]12)c1ccco1; assay: as §1; conditions: JM109
[29] = substrate: CO/N=C(\C(=O)N[C@@H]1C(=O)N2C(C(=O)O)=C(CSc3nc(=O)c(O)nn3C)CS[C@H]12)c1csc(N)n1; assay: as §1; conditions: JM109
[30] = substrate: CO/N=C(\C(=O)N[C@@H]1C(=O)N2C(C(=O)[O-])=C(C[N+]3(C)CCCC3)CS[C@H]12)c1csc(N)n1; assay: as §1; conditions: JM109
[31] = substrate: CO[C@@]1(NC(=O)Cc2cccs2)C(=O)N2C(C(=O)O)=C(COC(N)=O)CS[C@@H]21; assay: as §1; conditions: JM109
[32] = substrate: C[C@H]1[C@H](NC(=O)/C(=N\OC(C)(C)C(=O)O)c2csc(N)n2)C(=O)N1S(=O)(=O)O; assay: as §1; conditions: JM109
[33] = substrate: CC(=O)OCC1=C(C(=O)O)N2C(=O)[C@@H](NC(=O)Cc3cccs3)[C@H]2SC1; assay: (§2) Ratio of Kcat to Km for Escherichia coli beta-lactamase SHV-11; conditions: JM109
[34] = substrate: CC1(C)S[C@@H]2[C@H](NC(=O)[C@H](C(=O)O)c3ccsc3)C(=O)N2[C@H]1C(=O)O; assay: as §2; conditions: JM109
[35] = substrate: CCN1CCN(C(=O)N[C@@H](C(=O)N[C@@H]2C(=O)N3[C@@H]2SC(C)(C)[C@@H]3C(=O)O)c2ccccc2)C(=O)C1=O; assay: as §2; conditions: JM109
[36] = substrate: CO/N=C(\C(=O)N[C@@H]1C(=O)N2C(C(=O)O)=C(COC(N)=O)CS[C@H]12)c1ccco1; assay: as §2; conditions: JM109
[37] = substrate: CO/N=C(\C(=O)N[C@@H]1C(=O)N2C(C(=O)O)=C(CSc3nc(=O)c(O)nn3C)CS[C@H]12)c1csc(N)n1; assay: as §2; conditions: JM109

CO[C@@]1(NC(=O)Cc2cccs2)C(=O)N2C(C(=O)O)=C(COC(N)=O)CS[C@@H]21
kcat (Escherichia coli [1]): < 0.01 s⁻¹

CC1(C)S[C@@H]2[C@H](NC(=O)[C@H](C(=O)O)c3ccsc3)C(=O)N2[C@H]1C(=O)O [TICARCILLIN]
MIC (Klebsiella pneumoniae [2]): > 4100 mg/L | MIC (Escherichia coli [3]): 2050 mg/L (≈ 5330 µM) | MIC (Escherichia coli [4]): > 4100 mg/L | MIC (Escherichia coli [5]): 2050 mg/L (≈ 5330 µM) | MIC (Escherichia coli [6]): 4 mg/L (≈ 10.4 µM) | Km (Escherichia coli [1]): 450 µM | kcat (Escherichia coli [1]): 30 s⁻¹ | kcat/Km (Escherichia coli [7]): 70000 M⁻¹ s⁻¹ | MIC (Klebsiella pneumoniae [8]): 1020 mg/L | MIC (Escherichia coli [9]): 2 mg/L | MIC (Escherichia coli [10]): 256 mg/L | MIC (Escherichia coli [11]): 128 mg/L | MIC (Escherichia coli [12]): 2 mg/L

CC1(C)S[C@@H]2[C@H](NC(=O)[C@H](N)c3ccccc3)C(=O)N2[C@H]1C(=O)O [AMPICILLIN]
MIC (Klebsiella pneumoniae [2]): > 4100 mg/L | MIC (Escherichia coli [3]): 1020 mg/L (≈ 2930 µM) | MIC (Escherichia coli [4]): 2050 mg/L (≈ 5860 µM) | MIC (Escherichia coli [5]): 1020 mg/L (≈ 2930 µM) | MIC (Escherichia coli [6]): 4 mg/L (≈ 11.4 µM) | MIC (Escherichia coli [13]): 128 mg/L | MIC (Escherichia coli [14]): 128 mg/L | MIC (Escherichia coli [15]): 64 mg/L | MIC (Klebsiella pneumoniae [16]): 128 mg/L (≈ 366 µM)

CO/N=C(\C(=O)N[C@@H]1C(=O)N2C(C(=O)O)=C(COC(N)=O)CS[C@H]12)c1ccco1
kcat (Escherichia coli [1]): < 0.01 s⁻¹

CO/N=C(\C(=O)N[C@@H]1C(=O)N2C(C(=O)[O-])=C(C[N+]3(C)CCCC3)CS[C@H]12)c1csc(N)n1
MIC (Klebsiella pneumoniae [2]): ≤ 0.1 mg/L | MIC (Escherichia coli [6]): ≤ 0.1 mg/L | kcat (Escherichia coli [1]): < 0.01 s⁻¹

C[C@@H](O)[C@H]1C(=O)N2C(C(=O)O)=C(SCCNC=N)C[C@H]12 [IMIPENEM ANHYDROUS]
MIC (Klebsiella pneumoniae [2]): ≤ 0.1 mg/L | MIC (Escherichia coli [6]): ≤ 0.1 mg/L

CO/N=C(\C(=O)N[C@@H]1C(=O)N2C(C(=O)O)=C(CSc3nc(=O)c(O)nn3C)CS[C@H]12)c1csc(N)n1
kcat (Escherichia coli [1]): < 0.01 s⁻¹

CO/N=C(\C(=O)N[C@@H]1C(=O)N2C(C(=O)O)=C(COC(C)=O)CS[C@H]12)c1csc(N)n1 [CEFOTAXIME]
MIC (Klebsiella pneumoniae [2]): ≤ 0.1 mg/L | MIC (Escherichia coli [6]): ≤ 0.1 mg/L | kcat (Escherichia coli [1]): < 0.01 s⁻¹

CC1(C)S[C@@H]2[C@H](NC(=O)[C@H](N)c3ccc(O)cc3)C(=O)N2[C@H]1C(=O)O [AMOXICILLIN]
MIC (Klebsiella pneumoniae [2]): > 4100 mg/L | MIC (Escherichia coli [3]): 2050 mg/L (≈ 5600 µM) | MIC (Escherichia coli [4]): 4100 mg/L (≈ 11200 µM) | MIC (Escherichia coli [5]): 4100 mg/L (≈ 11200 µM) | MIC (Escherichia coli [6]): 4 mg/L (≈ 10.9 µM) | MIC (Klebsiella pneumoniae [8]): 4100 mg/L | MIC (Escherichia coli [9]): 2 mg/L | MIC (Escherichia coli [10]): 512 mg/L | MIC (Escherichia coli [11]): 256 mg/L | MIC (Escherichia coli [12]): 2 mg/L

CC(=O)OCC1=C(C(=O)O)N2C(=O)[C@@H](NC(=O)Cc3cccs3)[C@H]2SC1 [CEPHALOTHIN]
MIC (Klebsiella pneumoniae [2]): 8 mg/L (≈ 20.2 µM) | MIC (Escherichia coli [3]): 8 mg/L (≈ 20.2 µM) | MIC (Escherichia coli [4]): 8 mg/L (≈ 20.2 µM) | MIC (Escherichia coli [5]): 8 mg/L (≈ 20.2 µM) | MIC (Escherichia coli [6]): 4 mg/L (≈ 10.1 µM) | Km (Escherichia coli [1]): 20 µM | kcat (Escherichia coli [1]): 0.1 s⁻¹ | kcat/Km (Escherichia coli [7]): 5000 M⁻¹ s⁻¹

CC1(C)[C@H](C(=O)O)N2C(=O)C[C@H]2S1(=O)=O [SULBACTAM]
IC50 [17]: 0.3 µM

CC(C)(O/N=C(\C(=O)N[C@@H]1C(=O)N2C(C(=O)[O-])=C(C[n+]3ccccc3)CS[C@H]12)c1csc(N)n1)C(=O)O
kcat (Escherichia coli [1]): < 0.01 s⁻¹

C[C@H]1[C@H](NC(=O)/C(=N\OC(C)(C)C(=O)O)c2csc(N)n2)C(=O)N1S(=O)(=O)O
kcat (Escherichia coli [1]): < 0.01 s⁻¹

CCN1CCN(C(=O)N[C@@H](C(=O)N[C@@H]2C(=O)N3[C@@H]2SC(C)(C)[C@@H]3C(=O)O)c2ccccc2)C(=O)C1=O [PIPERACILLIN]
MIC (Klebsiella pneumoniae [2]): 512 mg/L (≈ 989 µM) | MIC (Escherichia coli [3]): 64 mg/L (≈ 124 µM) | MIC (Escherichia coli [4]): 512 mg/L (≈ 989 µM) | MIC (Escherichia coli [5]): 64 mg/L (≈ 124 µM) | MIC (Escherichia coli [6]): 2 mg/L (≈ 3.86 µM) | Km (Escherichia coli [1]): 50 µM | kcat (Escherichia coli [1]): 50 s⁻¹ | kcat/Km (Escherichia coli [7]): 1e+06 M⁻¹ s⁻¹ | MIC (Klebsiella pneumoniae [18]): 4 mg/L | MIC (Escherichia coli [19]): 2 mg/L | MIC (Escherichia coli [20]): 2 mg/L | MIC (Escherichia coli [21]): 1 mg/L | MIC (Escherichia coli [22]): 1 mg/L

B1: Beta-lactamase SHV-11 (Escherichia coli), Q7X575 (protein)
chain: MRYIRLCIISLLATLPLAVHASPQPLEQIKQSESQLSGRVGMIEMDLASGRTLTAWRADERFPMMSTFKVVLCGAVLARVDAGDEQLERKIHYRQQDLVDYSPVSEKHLADGMTVGELCAAAITMSDNSAANLLLATVGGPAGLTAFLRQIGDNVTRLDRWETELNEALPGDARDTTTPASMAATLRKLLTSQRLSARSQRQLLQWMVDDRVAGPLIRSVLPAGWFIADKTGAGERGARGIVALLGPNNKAERIVVIYLRDTPASMAERNQQIAGIGAALIEHWQR
Km [23]: 50 µM | kcat [23]: 0.5 s⁻¹ | kcat [24]: < 0.01 s⁻¹ | Km [25]: 20 µM | Km [26]: 40 µM | kcat [26]: 30 s⁻¹ | kcat [27]: < 0.01 s⁻¹ | Km [28]: 200 µM | kcat [28]: 0.05 s⁻¹ | Km [29]: 300 µM | kcat [29]: 0.01 s⁻¹ | kcat [30]: < 0.01 s⁻¹ | kcat [31]: < 0.01 s⁻¹ | kcat [32]: < 0.01 s⁻¹ | kcat/Km [33]: 10000 M⁻¹ s⁻¹ | kcat/Km [34]: 100000 M⁻¹ s⁻¹ | kcat/Km [35]: 750000 M⁻¹ s⁻¹ | kcat/Km [36]: 250 M⁻¹ s⁻¹ | kcat/Km [37]: 350000 M⁻¹ s⁻¹
